Test [1] deals with DCN1 (DCUND1) protein PONY domain (Homo sapiens (Human), UniProt Q96GG9). As to the kind of experiment: TR-FRET assay, DCN1 binding with FAM-labeled probe. In a few lines: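 Tb-DCN1 PONY domain (E. coli, biotin/streptavidin-Tb); FAM-labelled non-covalent inhibitor probe; TritonX buffer, 200 mM NaCl; 5 nM DCN1 + 20 nM probe or 0.31 nM DCN1 + 900 nM total probe; 0.1% DMSO; TR-FRET read 1, 5, 24 hrs.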
On the technique in general: In TR-FRET formats the signal depends on donor and acceptor labels being close together.

Test [2] relates to Cullin-3 (CUL3) neddylation. In words: AlphaLISA assay for Cullin-3 (CUL3) neddylation in TF 1 cells. Type of test: cell-based. The settings on record: 3 hours treatment. As for the experimental part:
An AiphaLISA assay was performed to evaluate the ability of the compounds to suppress neddylation, which is downstream from DCN-1 and DCN-2. A stronger inhibition of DCN-1 and DCN-2 is expected to result in a suppression of neddylation as shown by a lower AlphaLISA signal. The AlphaLISA assay for detecting Cullin-3 (CUL3) neddylation was performed according to manufacturer instructions (Revvity, Hopkinton, MA). Briefly, TF 1 cells (ATCC) were plated in Iscove's Modified Dulbecco's Medium (IMIDM) without supplements in 384-well plates. These cells were treated with […] for 3 hours before lysing them with AlphaLISA lysis buffer, 5× (Revvity). To detect the level of CUL3 neddylation, biotinylated anti-NEDD8 antibody, was added followed by AlphaLISA Acceptor beads conjugated with anti-CUL3 antibody. After overnight incubation, Streptavidin-coated Alpha Donor beads were added and incubated for 1 hour. The AlphaLISA signal was then read on a VICTOR Nivo Multimode Microplate Reader (Revvity, Hopkinton, MA). The positive control was 1 μM DI-1548, which is reported to reduce CUL3 neddylation, also referred to as C-1 in Example 41 (Zhou et al. Nature Comm. 2021). The neddylation signal was normalized such that the percent inhibition is 0% for vehicle control and 100% for positive control. The dose-response curves were fitted with the Hill equation to obtain IC50 values (Graphpad Prism).
(In general: Alpha assays give light when donor and acceptor beads are brought close together.)

The mark [3] stands for this setting: 24 hr after treatment with compound, read-out: TR FRET IC50 24 hr.
Setting [4] is: read-out: TR FRET IC50 1 hr, 1 hr after treatment with compound.
[5] abbreviates: TR FRET IC50 1 hr (nM), 1 hr after treatment with compound.

Like-named read-outs stand apart in the source and are kept apart here.

The term IC50 denotes the concentration at which inhibition is half-maximal.

Sequence of DCN1 (DCUND1) protein PONY domain (Q96GG9 60-248): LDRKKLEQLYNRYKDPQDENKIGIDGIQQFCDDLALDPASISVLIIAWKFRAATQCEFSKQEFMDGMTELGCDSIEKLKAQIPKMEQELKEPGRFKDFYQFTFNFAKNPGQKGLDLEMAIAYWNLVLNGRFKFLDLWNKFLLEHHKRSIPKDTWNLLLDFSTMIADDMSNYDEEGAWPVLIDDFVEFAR

As for `CCN1C(=O)[C@@H](NC(=O)c2cccc(C(F)(F)F)c2)[C@@H](c2ccc(F)cc2)c2c(COCC#N)nn(-c3ccccc3)c21` [Compound I-685], the IC50 is no more than 200 nM in test [1] (setting [3]); no more than 200 nM in test [1] (setting [4]); 100 to 1000 nM in test [2] (Homo sapiens, TF-1, 3 h).

Take `CCN1C(=O)[C@@H](NC(=O)c2cccc(C(F)(F)F)c2)[C@@H](c2ccc(F)cc2)c2c(CNC/C=C/C(=O)OC(C)(C)C)nn(-c3ccccc3)c21` [Compound I-635]: the IC50 in test [1] (setting [3]) is no more than 200 nM; in test [1] (setting [5]), 1000 to 3000 nM; in test [2] (Homo sapiens, TF-1, 3 h), 100 to 1000 nM.

In the case of `CCN1C(=O)[C@@H](NC(=O)c2cccc(C(F)(F)F)c2)[C@@H](C2CC2)c2c(C(=O)N(C)[C@H](C#N)CCN(C)C3COC3)nn(C3CCOCC3)c21` [Compound I-429], the IC50 in test [1] (setting [3]) was no more than 200 nM; in test [1] (setting [4]) it was no more than 200 nM; in test [2] (Homo sapiens, TF-1, 3 h), no more than 100 nM.

Turning to `CCN1C(=O)[C@H](NC(=O)c2cccc(C(F)(F)F)c2)C(C2CC2)c2c(C(=O)N3CCC[C@H]3C#N)nn(-c3ccccc3)c21` (stereo partly drawn) [Compound I-642], the IC50 was 1000 to 3000 nM in test [1] (setting [3]); 1000 to 3000 nM in test [1] (setting [5]); greater than 1000 nM in test [2] (Homo sapiens, TF-1, 3 h).

For `C=CC(=O)N[C@H](C)c1nn(-c2ccccc2)c2c1[C@@H](c1ccc(F)cc1)[C@H](NC(=O)c1nccc(C(F)(F)F)n1)C(=O)N2CC` [Compound I-533], the IC50 in test [1] (setting [3]) was in the range of 200 to 1000 nM; in test [1] (setting [5]), 200 to 1000 nM; in test [2] (Homo sapiens, TF-1, 3 h), 100 to 1000 nM.

As to `CCN1C(=O)[C@H](NC(=O)c2cccc(C(F)(F)F)c2)[C@H](c2ccc(F)cn2)c2c([C@@H](C)NC#N)nn(-c3ccccc3)c21` [Compound I-525], the IC50 in test [1] (setting [3]) is 1000 to 3000 nM; in test [1] (setting [5]) it was 1000 to 3000 nM; in test [2] (Homo sapiens, TF-1, 3 h), greater than 1000 nM.

As to `CCN1C(=O)C(NC(=O)c2cccc(C(F)(F)F)c2)[C@@H](C2CC2)c2c(C(=O)N3CC(NC)CC3C#N)nn(C3CCOCC3)c21` (stereo in doubt) [Compound I-420, N-[(4S,5S)-3-[(2S,4R*)-2-cyano-4-(methylamino)pyrrolidine-1-carbonyl]-4-cyclopropyl-7-ethyl-1-(oxan-4-yl)-6-oxo-4H,5H-pyrazolo[3,4-b]pyridin-5-yl]-3-(trifluoromethyl)benzamide], the IC50 is 1000 to 3000 nM in test [1] (setting [3]); 1000 to 3000 nM in test [1] (setting [5]); greater than 1000 nM in test [2] (Homo sapiens, TF-1, 3 h).

In the case of `CCN1C(=O)[C@@H](NC(=O)c2cccc(C(F)(F)F)c2)[C@@H](c2ccc(F)cc2)c2c([C@@H](CCO)NC#N)nn(-c3ccccc3)c21` (mixture of isomers) [Compound I-567, N-(rac-(4S,5S)-3-((R)-1-cyanamido-3-hydroxypropyl)-7-ethyl-4-(4-fluorophenyl)-6-oxo-1-phenyl-4,5,6,7-tetrahydro-1H-pyrazolo[3,4-b]pyridin-5-yl)-3-(trifluoromethyl)benzamide], the IC50 in test [1] (setting [3]) was 1000 to 3000 nM; in test [1] (setting [5]), 1000 to 3000 nM; in test [2] (Homo sapiens, TF-1, 3 h), greater than 1000 nM.

Take `CCN1C(=O)[C@@H](NC(=O)c2cccc3cccnc23)[C@@H](C2CC2)c2c(C(=O)N3[C@H](C#N)C[C@H]4C[C@H]43)nn(C3CCOCC3)c21` [Compound I-527]: the IC50 in test [1] (setting [3]) was no more than 200 nM; in test [1] (setting [5]), 200 to 1000 nM; in test [2] (Homo sapiens, TF-1, 3 h) it was 100 to 1000 nM.

For the compound `CCN1C(=O)[C@@H](NC(=O)c2cccc(C(F)(F)F)c2)[C@@H](c2ccc(F)cc2)c2c(C(C)=O)nn(-c3ccccc3)c21` (racemic) [Compound I-649], the IC50 was 1000 to 3000 nM in test [1] (setting [3]); 1000 to 3000 nM in test [1] (setting [5]); greater than 1000 nM in test [2] (Homo sapiens, TF-1, 3 h).

Regarding `CCN1C(=O)[C@@H](NC(=O)c2cccc(C(F)(F)F)c2)[C@@H](C2CC2)c2c(C(=O)N3[C@H](C)CC[C@H]3C#N)nn(C3CCOCC3)c21` [Compound I-621], the IC50 is 1000 to 3000 nM in test [1] (setting [3]); 1000 to 3000 nM in test [1] (setting [5]); greater than 1000 nM in test [2] (Homo sapiens, TF-1, 3 h).

For the compound `CCN1C(=O)[C@@H](NC(=O)c2cccc3c2OCC3)[C@@H](C2CC2)c2c(C(=O)N3[C@H](C#N)C[C@H]4C[C@H]43)nn(C3CCOCC3)c21` [Compound I-445], the IC50 in test [1] (setting [3]) is no more than 200 nM; in test [1] (setting [4]), no more than 200 nM; in test [2] (Homo sapiens) it was no more than 100 nM.

Consider `CCN1C(=O)[C@@H](NC(=O)c2cccc(C(F)(F)F)c2)[C@@H](c2ccc(F)cc2)c2c([C@@H](C)NC#N)nn(C3CCOCC3)c21` [Compound I-412], for which the IC50 in test [1] (setting [3]) is no more than 200 nM; in test [1] (setting [4]), no more than 200 nM; in test [2] (Homo sapiens, TF-1, 3 h), 100 to 1000 nM.

As to `CCN1C(=O)[C@H](NC(=O)c2cccc(C(F)(F)F)c2)[C@H](c2ccc(F)cc2)c2c(C(=O)N3[C@H](C#N)C[C@H]4C[C@H]43)nn([C@@H]3CCOC3)c21` (single isomer, unassigned) [Compound I-704], the IC50 was no more than 200 nM in test [1] (setting [3]), 1000 to 3000 nM in test [1] (setting [4]) and 100 to 1000 nM in test [2].

For the compound `CCN1C(=O)[C@@H](NC(=O)c2nccc(C(F)(F)F)n2)[C@@H](c2ccc(F)cc2)c2c(CNC(=O)/C=C/C(=O)OC(C)(C)C)nn(-c3ccccc3)c21` [Compound I-408], the IC50 was no more than 200 nM in test [1] (setting [3]); no more than 200 nM in test [1] (setting [4]); 100 to 1000 nM in test [2] (Homo sapiens, TF-1, 3 h).

For the compound `CCN1C(=O)[C@@H](NC(=O)c2cccc(C(F)(F)F)c2)[C@@H](c2ccc(F)cc2)c2c([C@@H](CN(C)C)NC(N)=O)nn(-c3ccccc3)c21` (mixture of isomers) [Compound I-673], the concentration for half-maximal inhibition (IC50) in test [1] (setting [3]) was 200 to 1000 nM; in test [1] (setting [5]) it was 200 to 1000 nM; in test [2] (Homo sapiens, TF-1, 3 h), greater than 1000 nM.

In the case of `CCN1C(=O)[C@H](NC(=O)c2cccc(C(F)(F)F)c2)[C@H](c2ccc(C)cc2)c2c(C(=O)N(C)CC#N)nn(C3CC3)c21` [Compound I-494], the IC50 is 1000 to 3000 nM in test [1] (setting [3]); 1000 to 3000 nM in test [1] (setting [5]); greater than 1000 nM in test [2] (Homo sapiens, TF-1, 3 h).

Regarding `CCN1C(=O)[C@H](NC(=O)c2cccc(C(F)(F)F)c2)[C@H](c2ccc(F)cc2)c2c(C(=O)N3[C@H](C#N)C[C@@H]4C[C@@H]43)nn(-c3ccccc3)c21` [Compound I-463], the IC50 in test [1] (setting [3]) was 1000 to 3000 nM; in test [1] (setting [5]), 1000 to 3000 nM; in test [2] (Homo sapiens, TF-1, 3 h), greater than 1000 nM.

`CCN1C(=O)[C@@H](NC(=O)c2cccc(C(F)(F)F)c2)[C@@H](c2ccc(F)cc2)c2c(CN(CC#N)C(C)=O)nn(-c3ccccc3)c21` [Compound I-542, N-((4S,5S)-3-((N-(cyanomethyl)acetamido)methyl)-7-ethyl-4-(4-fluorophenyl)-6-oxo-1-phenyl-4,5,6,7-tetrahydro-1H-pyrazolo[3,4-b]pyridin-5-yl)-3-(trifluoromethyl)benzamide]: the IC50 in test [1] (setting [3]) was 200 to 1000 nM; in test [1] (setting [5]), 1000 to 3000 nM; in test [2] (Homo sapiens, TF-1, 3 h) it was 100 to 1000 nM.

Regarding `CCN1C(=O)[C@@H](NC(=O)c2nccc(C(F)(F)F)n2)[C@H](c2ccc(F)cc2)c2c(CNC(=O)CC#N)nn(-c3ccccc3)c21` [Compound I-452, N-((4R,5S)-3-((2-cyanoacetamido)methyl)-7-ethyl-4-(4-fluorophenyl)-6-oxo-1-phenyl-4,5,6,7-tetrahydro-1H-pyrazolo[3,4-b]pyridin-5-yl)-4-(trifluoromethyl)pyrimidine-2-carboxamide], the IC50 in test [1] (setting [3]) was 1000 to 3000 nM; in test [1] (setting [5]) it was 1000 to 3000 nM; in test [2] (Homo sapiens, TF-1, 3 h), greater than 1000 nM.

On to `CCN1C(=O)[C@@H](NC(=O)c2nc(C(F)(F)F)cs2)[C@@H](c2ccc(F)cc2)c2c(C(=O)N3CCC[C@H]3C#N)nn(C3CCOCC3)c21` [Compound I-586], for which the IC50 in test [1] (setting [3]) was 200 to 1000 nM; in test [1] (setting [5]), 1000 to 3000 nM; in test [2] (Homo sapiens, TF-1, 3 h) it was no more than 100 nM.

`CCN1C(=O)[C@@H](NC(=O)c2cccc(C(F)(F)F)c2)[C@@H](c2ccc(F)cc2)c2c(C(=O)N(C)CC#N)nn(-c3ccccc3)c21` (racemic) [Compound I-398]: the IC50 in test [1] (setting [3]) is 1000 to 3000 nM; in test [1] (setting [5]), 1000 to 3000 nM; in test [2], greater than 1000 nM.

Take `CCN1C(=O)[C@@H](NC(=O)c2cccc(C(F)(F)F)c2)[C@@H](c2ccc(F)cc2)c2c(CNC(=O)/C=C(\C)C(=O)OC)nn(-c3ccccc3)c21` (racemic) [Compound I-150, rac-methyl (E)-4-((((4R,5R)-7-ethyl-4-(4-fluorophenyl)-6-oxo-1-phenyl-5-(3-(trifluoromethyl)benzamido)-4,5,6,7-tetrahydro-1H-pyrazolo[3,4-b]pyridin-3-yl)methyl)amino)-2-methyl-4-oxobut-2-enoate]: the IC50 in test [1] (setting [3]) was 200 to 1000 nM; in test [1] (setting [5]), 1000 to 3000 nM; in test [2] (Homo sapiens, TF-1, 3 h), greater than 1000 nM.

For `CCN1C(=O)[C@@H](NC(=O)c2cccc(C(F)(F)F)c2)[C@@H](C2CCC2)c2c(C(=O)N3[C@H](C#N)C[C@H]4C[C@H]43)nn(C3CCOCC3)c21` [Compound I-593], the IC50 in test [1] (setting [3]) was no more than 200 nM; in test [1] (setting [4]) it was no more than 200 nM; in test [2] (Homo sapiens, TF-1, 3 h), no more than 100 nM.

These data come from patent US20250163057A1, “DCN-1 MODULATING COMPOUNDS AND METHODS OF USE THEREOF” (Cellarity, Inc., priority 2023, published 2025).
